Laboratory results reported in patent US11560365B2, “Non-fluorescent rhodamines” (THE UNIVERSITY OF TOKYO, priority 2018, dated 2023).
Each block holds one compound with its values, some of them ahead of it.

Legend:
[1] = Optical properties: relative fluorescence quantum yield with reference to Rhodamine B; assay type: physicochemical; settings: for fluorescence quantum yield (Φfl): relative to Rhodamine B
Method: The optical properties of the compound synthesized in the above Synthesis Examples were evaluated. The results are illustrated in FIG. 4.
(§1) (a to c) of FIG. 4 illustrate chemical structures of tetramethylrhodamine (TMR) (a), 4-Cl TMR (b) and 4,5-diCl TMR (c), the fluorescence quantum yields (Φf1) in MeOH containing 0.1% TFA, absorption maximum (λabs) and emission maximum (λem). Φf1 is a relative fluorescence quantum yield determined with reference to Rhodamine B (Φf1=0.65) of EtOH.
(d to f) of FIG. 4 illustrates absorption spectra and emission spectra of 1 μM TMR (d), 4-Cl TMR (e) and 4,5-diCl TMR (f) in MeOH containing 0.1% TFA and 0.1% DMSO.
as §1, with “6” for “4”, “2-Cl TMR” for “tetramethylrhodamine (TMR)”, “2-Me” for “4-Cl”, “2-F” for “4,5-diCl”, “(Oni)” for “(Φf1)”
(d to f) of FIG. 6 illustrates the absorption spectra and the emission spectra of 1 μM 2-Cl TMR (a), 2-Me TMR (b) and 2-F TMR (c) in MeOH containing 0.1% TFA and 0.1% DMSO.
(a) of FIG. 7 illustrates Φf1, λabs and λem of 2-Cl triMe rhodamine in MeOH containing 0.1% TFA. (b) of FIG. 7 illustrates the absorption spectrum and the emission spectrum of 1 μM 2-Cl triMe rhodamine in MeOH containing 0.1% TFA.

[2] = Solvent viscosity dependence of the fluorescence quantum yield; assay type: physicochemical
Method: Next, in order to examine whether the non-fluorescence of the newly developed non-fluorescent rhodamine was due to the production of the TICT state, solvent viscosity dependence of the fluorescence quantum yield was examined. Specifically, the absorption, fluorescence spectrum and fluorescence quantum yield were measured in three types of solvents including MeOH (εr=32.6, η=0.61 cP), ethylene glycol (εr=38.7, η=19.9 cP) and glycerol (εr=42.5, η=1412 cP). […] It was expected that if the formation of the TICT state was promoted by the steric hindrance due to the introduction of the substituent, while quenching was performed by the formation of the TICT state in MeOH, in a highly viscous solvent such as glycerol, a rate of intramolecular twist became slow, and the transition to the TICT state was suppressed, so that the fluorescence quantum yield would increase.
(a) of FIG. 5 is Φf1 of 4-Cl TMR in glycerol, ethylene glycol and MeOH. Φf1 is a relative fluorescence quantum yield determined with reference to Rhodamine B (Φf1=0.65) of EtOH. (b and c) of FIG. 5 illustrate the absorption spectrum (b) and the emission spectrum (c) of 1 μM 4-Cl TMR in glycerol, ethylene glycol and MeOH.

[3] = biological target: T1, CYP1A2 (Homo sapiens, UniProt P05177); settings: literature (Stresser et al. 2002); cited from earlier work
T1 sequence (P05177 1-516): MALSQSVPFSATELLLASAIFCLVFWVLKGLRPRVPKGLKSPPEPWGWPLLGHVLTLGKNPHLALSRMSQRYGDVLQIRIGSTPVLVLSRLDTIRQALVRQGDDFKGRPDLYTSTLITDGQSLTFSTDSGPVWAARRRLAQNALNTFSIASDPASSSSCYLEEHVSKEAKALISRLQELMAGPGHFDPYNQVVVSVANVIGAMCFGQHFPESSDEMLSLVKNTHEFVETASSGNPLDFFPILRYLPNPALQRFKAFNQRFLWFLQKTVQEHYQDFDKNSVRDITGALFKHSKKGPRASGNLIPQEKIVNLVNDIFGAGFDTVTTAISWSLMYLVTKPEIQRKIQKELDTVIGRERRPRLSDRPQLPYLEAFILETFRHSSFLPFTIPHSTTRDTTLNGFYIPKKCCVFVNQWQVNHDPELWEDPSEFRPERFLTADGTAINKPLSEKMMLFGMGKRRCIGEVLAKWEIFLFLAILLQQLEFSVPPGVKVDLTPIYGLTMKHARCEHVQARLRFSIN

[4] = test system: CYP3A; settings: literature statement; cited from earlier work
[5] = test system: CYP3A activity of HepaRG; experiment: Fluorescence imaging of CYP3A activity in living HepaRG cells; assay type: cell-based; settings: 1 μM compound, 37° C. 30 minutes; control and rifampicin groups versus ketoconazole group
Method: HepaRG (registered trademark) frozen vial 8M (HPR116-8M) purchased from KAC Co., Ltd. was thawed and inoculated according to the manufacturer's protocol, and cultured for 6 days in an 8-well chamber (Matsunami: SCC-038 collagen coat). Then, it was examined whether Compound 29 could detect the CYP3A activity of HepaRG.
Imaging was performed on three types of control group, inhibitor-added group, and derivative-added group.
Ketoconazole was used as an inhibitor. Rifampicin was used as an inducer of the CYP3A activity. […]
Here, FIG. 18 illustrates a fluorescence image (control) of HepaRG obtained when HepaRG to which 0.1% DMSO was added for 3 days was pretreated with 0.1% DMSO for 30 minutes, then 1 μM of Compound 29 was added, and the mixture was incubated at 37° C. for 30 minutes, a fluorescence image (+ inhibitor) of HepaRG obtained when 0.1% DMSO was added for 3 days and pretreated with 1 μM ketoconazole for 30 minutes before imaging, then Compound 29 was added, and the mixture was incubated at 37° C. for 30 minutes, and a fluorescence image obtained when 20 μM rifampicin were added for 3 days and was pretreated with 0.1% DMSO for 30 minutes, then Compound 29 was added, and the mixture was further incubated at 37° C. for 30 minutes. […]

[6] = biological target: CYP3A4 (Homo sapiens, UniProt P08684); experiment: Absorption/fluorescence spectrum changes on reaction with CYP3A4; assay type: biochemical; settings: 1 μM compound, CYP3A4 10 nM
CYP3A4, sequence (P08684 whole entry): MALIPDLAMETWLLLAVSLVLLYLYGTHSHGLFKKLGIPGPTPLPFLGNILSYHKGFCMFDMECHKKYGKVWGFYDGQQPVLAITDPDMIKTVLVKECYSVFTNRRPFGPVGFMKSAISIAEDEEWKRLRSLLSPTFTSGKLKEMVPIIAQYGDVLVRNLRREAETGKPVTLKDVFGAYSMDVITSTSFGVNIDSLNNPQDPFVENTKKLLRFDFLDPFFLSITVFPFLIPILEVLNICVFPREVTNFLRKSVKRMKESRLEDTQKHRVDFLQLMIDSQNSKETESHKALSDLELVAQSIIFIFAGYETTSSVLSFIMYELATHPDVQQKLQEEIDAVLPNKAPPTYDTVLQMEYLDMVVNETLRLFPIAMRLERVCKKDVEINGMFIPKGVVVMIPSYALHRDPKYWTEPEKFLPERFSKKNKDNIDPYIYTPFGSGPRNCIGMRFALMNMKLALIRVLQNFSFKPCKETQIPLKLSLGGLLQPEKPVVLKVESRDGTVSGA
Source text: Next, as a representative of the compounds illustrated in FIG. 15, absorption/fluorescence spectrum changes when Compound 29 (illustrated below) was reacted with CYP3A4 were shown (FIG. 16).

[7] = test system: CYP3A in human liver microsomes; experiment: Time-dependent fluorescence change with human liver microsomes and NADPH producing system
Method: The human liver microsomes and the NADPH producing system were pre-incubated with 0.1% DMSO or 10 μM ketoconazole for 30 minutes before addition of Compound 29, and the measurement was started immediately after addition of Compound 29.

[8] = in EtOH; cited from earlier work

SMILES: Cc1ccccc1-c1c2ccc(=[N+](C)C)c(Cl)c-2oc2c(Cl)c(N(C)C)ccc12 [4,5-diCl TMR, 4,5-diClTMR]
fluorescence quantum yield (Φfl) ([1]; MeOH containing 0.1% TFA): 0.001

SMILES: COc1cccc(OC)c1C1=C2C=CC(=[N+](C)C)C(Cl)=C2[Si](C)(C)c2c1ccc(N(C)C)c2Cl [4,5-diCl TMSiR]
fluorescence quantum yield ([1]; Si-rhodamines, Example 5): ≤ 0.1%

SMILES: Cc1ccccc1C1=C2C=CC(=[N+](C)C)C(Cl)=C2[Si](C)(C)c2cc(N(C)C)ccc21 [4-Cl TMSiR]
fluorescence quantum yield ([1]; Si-rhodamines, Example 5): 1%

SMILES: O=c1cc(C(F)(F)F)c2ccc(OCc3ccccc3)cc2o1 [BFC, 7-benzyloxy-4-trifluoromethylcoumarin]
metabolism by CYP1A2 [3]: metabolized to some extent by CYP1A2
metabolism by CYP3A [4]: metabolized by CYP3A

SMILES: c1ccc(COc2ccc3cccnc3c2)cc1 [BQ, 7-benzyloxyquinoline]
metabolism by CYP1A2 [3]: metabolized to some extent by CYP1A2
metabolism by CYP3A [4]: metabolized by CYP3A

SMILES: CCN(CC)c1ccc2c(-c3ccccc3C(=O)O)c3ccc(=[N+](CC)CC)cc-3oc2c1.[Cl-] [Rhodamine B]
fluorescence quantum yield (Φfl) of the reference [8]: 0.65

SMILES: CC(=O)N1CCN(c2ccc(OCC3COC(Cn4ccnc4)(c4ccc(Cl)cc4Cl)O3)cc2)CC1 (stereo not shown) [ketoconazole, reference compound]
effect of inhibitor on the fluorescence increase of Compound 29 in human liver microsomes ([7]; 10 μM ketoconazole pre-incubated 30 minutes): suppressed

Continued, in another order:

fluorescence behaviour (in words) ([1]; MeOH containing 0.1% TFA): exhibited non-fluorescence
SMILES: CN(C)c1ccc2c(-c3ccccc3C(=O)O)c3cc(Cl)c(=[N+](C)C)cc-3oc2c1 [2-Cl TMR, 2-ClTMR]

fluorescence quantum yield ([1]; MeOH containing 0.1% TFA): 15%
SMILES: C/N=c1\cc2oc3cc(N(C)C)ccc3c(-c3ccccc3C(=O)O)c-2cc1Cl [2-Cl triMe rhodamine]

fluorescence quantum yield ([1]; MeOH containing 0.1% TFA): about 10%
SMILES: CN(C)c1ccc2c(-c3ccccc3C(=O)O)c3cc(F)c(=[N+](C)C)cc-3oc2c1 [2-F TMR, 2-FTMR]

fluorescence quantum yield ([1]; MeOH containing 0.1% TFA): about 1%
SMILES: Cc1cc2c(-c3ccccc3C(=O)O)c3ccc(N(C)C)cc3oc-2cc1=[N+](C)C [2-Me TMR, 2-MeTMR]

fluorescence quantum yield (Φfl) ([1]; MeOH containing 0.1% TFA): 0.003
fluorescence quantum yield (Φfl) ([2]; MeOH (η=0.61 cP)): 0.003
fluorescence quantum yield (Φfl) ([2]; ethylene glycol (η=19.9 cP)): 0.01
fluorescence quantum yield (Φfl) ([2]; glycerol (η=1412 cP)): 0.09
SMILES: Cc1ccccc1-c1c2ccc(=[N+](C)C)c(Cl)c-2oc2cc(N(C)C)ccc12 [4-Cl TMR, 4-ClTMR]

change of absorption on reaction with CYP3A4 ([6]; pH 7.4): Shortening the absorption wavelength
fluorescence change on reaction with human liver microsomes ([7]; pH 7.4): showed the increase in fluorescence
SMILES: CCCCCOCC/[N+](C)=c1/cc2oc3cc(N(C)C)ccc3c(-c3ccccc3C(=O)O)c-2cc1C [Compound 29]
detection of CYP3A activity in living cells by fluorescence [5]: could detect the CYP3A activity even in living cells
change of fluorescence intensity on reaction with CYP3A4 ([6]; pH 7.4, excitation 520 nm): significant increase in fluorescence intensity

fluorescence quantum yield (Φfl) ([1]; MeOH containing 0.1% TFA): 0.399
SMILES: Cc1ccccc1-c1c2ccc(=[N+](C)C)cc-2oc2cc(N(C)C)ccc12 [reference compound]
